Source: patent US11911375B2, “Solid oral nicotine formulation” (Fertin Pharma A/S, priority 2020, dated 2024)

How the values were obtained:
[1] = 25 degrees Celsius, atmospheric pressure and pH 7.0; cited from earlier work
[2] = Example 15: release of nicotine from NPR (16%) with 1 equivalent of AlCl3 or MgO in water, 28 mg/L nicotine, 25 degrees Celsius, 150 rpm, HPLC; assay type: physicochemical; details: 1 equivalent of MgO; release from NPR (16%)
Protocol: The temperature of the water was 25 degrees Celsius throughout the experiment and stirring of 150 rpm was applied throughout the experiment. pH was measured at experiment start and end.
(§1) A relative low nicotine concentration is used in order to reduce the impact of equilibrium on both the release rate and effective release of nicotine from the ion-exchange resin.
Samples were taken out at varying timepoints and analyzed for nicotine content using standard HPLC. The result is presented as percentage of nicotine released.

[3] = compared with CaCl2; release from NPR (16%)
Protocol: The temperature of the water was 25 degrees Celsius throughout the experiment and stirring of 100 rpm was applied throughout the experiment. pH was measured at experiment start and end.
as §1
Samples were taken out at varying timepoints and analyzed for nicotine content using standard HPLC. The results are presented as percentage of nicotine released.

SMILES | water-solubility [1] | Effect of the presence of MgO on release of nicotine [2] | Effect of NaCl on the release of nicotine [3]
[Mg+2].[O-2] [MgO] | below 5 grams per 100 mL of water | does not increase the release of nicotine | 
[Cl-].[Na+] [NaCl] |  |  | much lower effect on the release of nicotine
